Experimental data published in patent US20170190671A1, “BIS(ARYL)CATECHOL DERIVATIVES AS HERBICIDES” (E I DU PONT DE NEMOURS AND COMPANY, priority 2014, published 2017).

Key:
Experiment in all cases: Test D postemergence
Format in all cases: in vivo
Conditions in all cases: scale 0 to 100
[1] = tested on: Italian ryegrass (Lolium multiflorum)
In short: (§1)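 Visual injury scored 0–100 (0 = no effect, 100 = complete control) against controls 14 to 21 days after treatment in a controlled growth environment. Compounds were applied in surfactant-containing non-phytotoxic solvent, preemergence onto silt loam-sown seeds or postemergence onto 1- to 4-leaf plants.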

[2] = tested on: blackgrass (Alopecurus myosuroides)
In short: as §1

[3] = tested on: bluegrass (annual bluegrass, Poa annua)
In short: as §1

[4] = tested on: canarygrass (Phalaris minor)
In short: as §1

[5] = tested on: chickweed (common chickweed, Stellaria media)
In short: as §1

[6] = tested on: deadnettle (henbit deadnettle, Lamium amplexicaule)
In short: as §1

[7] = tested on: downy bromegrass (Bromus tectorum)
In short: as §1

[8] = tested on: field violet (Viola arvensis)
In short: as §1

[9] = tested on: galium (catchweed bedstraw, Galium aparine)
In short: as §1

[10] = tested on: green foxtail (Setaria viridis)
In short: as §1

[11] = tested on: lambsquarters (Chenopodium album)
In short: as §1

[12] = tested on: pigweed (Amaranthus retroflexus)
In short: as §1

[13] = tested on: spring wheat (Triticum aestivum)
In short: as §1

[14] = tested on: wild buckwheat (Polygonum convolvulus)
In short: as §1

[15] = tested on: windgrass (Apera spica-venti)
In short: as §1

[16] = tested on: winter barley (Hordeum vulgare)
In short: as §1

Fc1cnc(Oc2c(F)cccc2Oc2ncc(Cl)cn2)nc1 [Compound 23]
Plant response rating, Ryegrass, Italian ([1]; 16 g ai/ha): 0
Plant response rating, Ryegrass, Italian ([1]; 31 g ai/ha): 5
Plant response rating, Ryegrass, Italian ([1]; 62 g ai/ha): 10
Plant response rating, Ryegrass, Italian ([1]; 125 g ai/ha): 25
Plant response rating, Blackgrass ([2]; 16 g ai/ha): 10
Plant response rating, Blackgrass ([2]; 31 g ai/ha): 20
Plant response rating, Blackgrass ([2]; 62 g ai/ha): 35
Plant response rating, Blackgrass ([2]; 125 g ai/ha): 55
Plant response rating, Bluegrass ([3]; 16 g ai/ha): 5
Plant response rating, Bluegrass ([3]; 31 g ai/ha): 10
Plant response rating, Bluegrass ([3]; 62 g ai/ha): 15
Plant response rating, Bluegrass ([3]; 125 g ai/ha): 35
Plant response rating, Canarygrass ([4]; 16 g ai/ha): 10
Plant response rating, Canarygrass ([4]; 31 g ai/ha): 20
Plant response rating, Canarygrass ([4]; 62 g ai/ha): 25
Plant response rating, Canarygrass ([4]; 125 g ai/ha): 55
Plant response rating, Chickweed ([5]; 16 g ai/ha): 60
Plant response rating, Chickweed ([5]; 31 g ai/ha): 70
Plant response rating, Chickweed ([5]; 62 g ai/ha): 70
Plant response rating, Chickweed ([5]; 125 g ai/ha): 80
Plant response rating, Deadnettle ([6]; 16 g ai/ha): 10
Plant response rating, Deadnettle ([6]; 31 g ai/ha): 20
Plant response rating, Deadnettle ([6]; 62 g ai/ha): 55
Plant response rating, Deadnettle ([6]; 125 g ai/ha): 70
Plant response rating, Bromegrass, Downy ([7]; 16 g ai/ha): 5
Plant response rating, Bromegrass, Downy ([7]; 31 g ai/ha): 10
Plant response rating, Bromegrass, Downy ([7]; 62 g ai/ha): 20
Plant response rating, Bromegrass, Downy ([7]; 125 g ai/ha): 25
Plant response rating, Field Violet ([8]; 16 g ai/ha): 15
Plant response rating, Field Violet ([8]; 31 g ai/ha): 60
Plant response rating, Field Violet ([8]; 62 g ai/ha): 60
Plant response rating, Field Violet ([8]; 125 g ai/ha): 70
Plant response rating, Galium ([9]; 16 g ai/ha): 65
Plant response rating, Galium ([9]; 31 g ai/ha): 70
Plant response rating, Galium ([9]; 62 g ai/ha): 85
Plant response rating, Galium ([9]; 125 g ai/ha): 85
Plant response rating, Foxtail, Green ([10]; 16 g ai/ha): 10
Plant response rating, Foxtail, Green ([10]; 31 g ai/ha): 10
Plant response rating, Foxtail, Green ([10]; 62 g ai/ha): 15
Plant response rating, Foxtail, Green ([10]; 125 g ai/ha): 20
Plant response rating, Lambsquarters ([11]; 16 g ai/ha): 10
Plant response rating, Lambsquarters ([11]; 31 g ai/ha): 30
Plant response rating, Lambsquarters ([11]; 62 g ai/ha): 60
Plant response rating, Lambsquarters ([11]; 125 g ai/ha): 60
Plant response rating, Pigweed ([12]; 16 g ai/ha): 55
Plant response rating, Pigweed ([12]; 31 g ai/ha): 60
Plant response rating, Pigweed ([12]; 62 g ai/ha): 70
Plant response rating, Pigweed ([12]; 125 g ai/ha): 90
Plant response rating, Wheat, Spring ([13]; 16 g ai/ha): 0
Plant response rating, Wheat, Spring ([13]; 31 g ai/ha): 5
Plant response rating, Wheat, Spring ([13]; 62 g ai/ha): 5
Plant response rating, Wheat, Spring ([13]; 125 g ai/ha): 10
Plant response rating, Buckwheat, Wild ([14]; 16 g ai/ha): 50
Plant response rating, Buckwheat, Wild ([14]; 31 g ai/ha): 70
Plant response rating, Buckwheat, Wild ([14]; 62 g ai/ha): 75
Plant response rating, Buckwheat, Wild ([14]; 125 g ai/ha): 75
Plant response rating, Windgrass ([15]; 16 g ai/ha): 10
Plant response rating, Windgrass ([15]; 31 g ai/ha): 10
Plant response rating, Windgrass ([15]; 62 g ai/ha): 15
Plant response rating, Windgrass ([15]; 125 g ai/ha): 20
Plant response rating, Barley, Winter ([16]; 16 g ai/ha): 0
Plant response rating, Barley, Winter ([16]; 31 g ai/ha): 5
Plant response rating, Barley, Winter ([16]; 62 g ai/ha): 5
Plant response rating, Barley, Winter ([16]; 125 g ai/ha): 5
